Data on 6 compounds can be found in article PMC7911959, “Selective Inhibition of Human Monoamine Oxidase B by 5-hydroxy-2-methyl-chroman-4-one Isolated from an Endogenous Lichen Fungus Daldinia fissa” (Journal of Fungi, 2021).

The target of one data set is T1, Human recombinant MAO-A (Homo sapiens, UniProt P21397).
T1 construct: purchased Sigma-Aldrich
T1 sequence (P21397 1-527): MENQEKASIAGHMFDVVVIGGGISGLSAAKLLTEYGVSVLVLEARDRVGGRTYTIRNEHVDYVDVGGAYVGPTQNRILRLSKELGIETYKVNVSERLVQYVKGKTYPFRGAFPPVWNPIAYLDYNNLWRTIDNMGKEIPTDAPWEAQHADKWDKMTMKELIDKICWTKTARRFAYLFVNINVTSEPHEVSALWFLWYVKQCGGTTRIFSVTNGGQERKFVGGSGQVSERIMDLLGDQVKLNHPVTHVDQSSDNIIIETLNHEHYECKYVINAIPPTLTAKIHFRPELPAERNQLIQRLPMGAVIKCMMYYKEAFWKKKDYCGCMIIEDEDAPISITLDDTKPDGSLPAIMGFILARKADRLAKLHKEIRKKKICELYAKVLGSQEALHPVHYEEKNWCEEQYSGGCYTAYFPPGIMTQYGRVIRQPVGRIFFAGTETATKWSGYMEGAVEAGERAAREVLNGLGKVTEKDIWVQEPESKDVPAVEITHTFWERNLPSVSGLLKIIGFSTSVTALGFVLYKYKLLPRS
Kind of data set: MAO-A activity assay (kynuramine, 316 nm). Format: biochemical. How it is done:
(§1) Human recombinant MAO-A and MAO-B enzymes were used, and the activities were measured in a final volume of 500 µL of 100 mM sodium phosphate buffer of pH 7.2, and 0.06 mM kynuramine (MAO-A), or 0.3 mM benzylamine (MAO-B).
(§2) The inhibitory activities of the isolated compounds were analyzed at a concentration of 2 µg/mL.

A further data set deals with T2, electric eel AChE (Electrophorus electricus, UniProt O42275).
T2 construct: purchased Sigma-Aldrich
Kind of data set: biochemical. How it is done:
(§3) For cholinesterase activity assay, electric eel AChE and horse serum BChE were used. Activities were measured according to the Ellman method, with slight modifications, in 50 mM sodium phosphate buffer (pH 7.5). After adding cholinesterase enzymes and the inhibitor, pre-incubation was applied for 15 min. After adding 0.5 mM 5,5-dithiobis (2-nitrobenzoic acid) (DTNB) 0.5 mM for color development, 0.5 mM acetyl thiocholine iodide (ATCI) or 0.5 mM butyrylthiocholine iodide (BTCI) was used as a substrate.

In another data set the target is T3, horse serum BChE (Equus caballus, UniProt P81908).
T3 construct: electric eel AChE and horse serum BChE were used; purchased Sigma-Aldrich; host or cells: horse serum
Kind of data set: biochemical. As to the method:
as §3

In data set [1] the test system is MDCK (Madin–Darby canine kidney) cells. Kind of data set: Cytotoxicity, CCK-8 assay, MDCK. Format: cell-based. Conditions: 50 µM, 24 h treatment, CCK-8 3 h. How it is done: (§4) Cell viability was determined according to the cell counting kit (CCK)-8 assay method, using MDCK (Madin–Darby canine kidney) and HL-60 (human acute promyelocytic leukemia) cells, as normal and cancer cells, respectively. Briefly, MDCK and HL-60 cells were resuspended in Dulbecco’s modified eagle medium (DMEM) and Roswell Park Memorial Institute (RPMI)-1640, respectively, at 1 × 10^5 and 3 × 10^5 cells/mL, respectively. The cell suspension (100 µL) was added to each well of the 96-well plate and was incubated for 24 h at 5% CO2 and 37 °C. After incubation, 100 µL of the medium supplemented with 1, 3, 10, 30, and 50 µM of the compound was added to each well and incubated again. After 24 h, 100 µL of the solution was removed from each well, and CCK-8 (10 µL/well) was dispensed. After 2~4 h, the absorbance was detected at 450 nm with a microplate reader (Versamax, Molecular Devices, CA, USA).
A general note: Formazan colour is commonly taken as a measure of viable cells.

The subject of another data set is T4, BACE-1.
T4 construct: purchased Sigma-Aldrich
Kind of data set: BACE-1 activity assay (detection kit, fluorescence). Conditions: isolated compounds, residual activity at 10 µg/mL (footnote a). The data set is classed as biochemical. How it is done:
BACE-1 assay was carried out using the BACE-1 activity detection kit and a fluorescence spectrometer (FS-2, Scinco, Seoul, Korea) by an excitation at 320 nm and an emission at 405 nm, after the reaction for 2 h at 37 °C [24].

Data set [2] can be described thus: DPPH antioxidant activity assay. Conditions: isolated compounds, 100 µg/mL (footnote b). How it is done:
The antioxidant activity was measured at 100 µg/mL of the extracts using 0.1 mM 2,2-diphenyl-1-picrylhydrazyl (DPPH). After 15 min of pre-incubation, absorbance was measured at 517 nm.
(In general: The DPPH test is a chemical assay of radical scavenging.)

Data set [3] deals with T5, MAO-B.
T5 construct: purchased Sigma-Aldrich
Kind of data set: Inhibitor reversibility analysis by dialysis. The data set is classed as biochemical, human. Conditions: for MAO-B activity recovered after dialysis: ~2× IC50, dialyzed; for MAO-B activity before dialysis (undialyzed): ~2× IC50, undialyzed.

Data set [4] relates to HL-60 (human acute promyelocytic leukemia) cells. Kind of data set: Cytotoxicity, CCK-8 assay, HL-60. The settings on record: 50 µM, 24 h treatment, CCK-8 4 h. The data set is classed as cell-based. How it is done:
as §4

In another data set the target is T6, Human recombinant MAO-B (Homo sapiens, UniProt P27338).
T6 construct: purchased Sigma-Aldrich
T6 sequence (P27338 1-520): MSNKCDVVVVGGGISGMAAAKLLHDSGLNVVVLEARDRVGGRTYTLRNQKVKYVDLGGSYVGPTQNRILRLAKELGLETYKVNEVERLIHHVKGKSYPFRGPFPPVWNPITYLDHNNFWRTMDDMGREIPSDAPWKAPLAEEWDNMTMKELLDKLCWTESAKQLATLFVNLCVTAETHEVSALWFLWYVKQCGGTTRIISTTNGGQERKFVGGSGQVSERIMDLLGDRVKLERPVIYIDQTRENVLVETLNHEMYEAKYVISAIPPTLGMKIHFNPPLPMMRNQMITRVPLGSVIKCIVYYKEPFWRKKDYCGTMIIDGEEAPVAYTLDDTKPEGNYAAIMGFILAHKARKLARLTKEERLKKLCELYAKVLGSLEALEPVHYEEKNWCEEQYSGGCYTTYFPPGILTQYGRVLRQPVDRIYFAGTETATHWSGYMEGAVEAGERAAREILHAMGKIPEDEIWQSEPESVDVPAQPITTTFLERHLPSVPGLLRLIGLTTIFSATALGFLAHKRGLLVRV
Kind of data set: MAO-B activity assay (benzylamine, 250 nm). The data set is classed as biochemical. As to the method: as §1, §2

For data set [5], the target named is T5, MAO-B. The settings on record: co-crystallized ligand of PDB 4A79; reference not given; cited from earlier work.
The test system of a further data set is liver or brain MAO. The settings on record: read-out: IC50 MAO enzyme; cited from earlier work.
A further data set addresses monoamine oxidase. On the set-up: method as in PMID 27520493. Conditions: cited from earlier work.

In brackets after ≈: the same amount, converted by molar mass. Entries after “also recorded” stand apart in the source; their conditions may differ. Bounds are passed on as bounds.

T3 sequence (P81908 whole entry): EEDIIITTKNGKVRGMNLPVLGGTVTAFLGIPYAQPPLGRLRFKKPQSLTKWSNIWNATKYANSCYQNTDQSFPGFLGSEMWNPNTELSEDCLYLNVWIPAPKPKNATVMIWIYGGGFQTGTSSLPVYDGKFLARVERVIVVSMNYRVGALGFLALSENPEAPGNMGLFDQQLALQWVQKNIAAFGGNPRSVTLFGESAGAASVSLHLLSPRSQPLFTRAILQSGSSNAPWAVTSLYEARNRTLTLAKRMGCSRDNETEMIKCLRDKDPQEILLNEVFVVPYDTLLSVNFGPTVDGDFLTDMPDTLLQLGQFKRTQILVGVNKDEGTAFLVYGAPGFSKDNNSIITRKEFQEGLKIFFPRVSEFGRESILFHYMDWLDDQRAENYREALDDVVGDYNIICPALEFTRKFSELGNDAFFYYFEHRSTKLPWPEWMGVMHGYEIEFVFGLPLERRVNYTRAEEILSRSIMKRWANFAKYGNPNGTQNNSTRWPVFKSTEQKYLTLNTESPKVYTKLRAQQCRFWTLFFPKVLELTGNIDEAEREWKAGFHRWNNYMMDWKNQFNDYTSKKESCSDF
T2 sequence (O42275 24-633): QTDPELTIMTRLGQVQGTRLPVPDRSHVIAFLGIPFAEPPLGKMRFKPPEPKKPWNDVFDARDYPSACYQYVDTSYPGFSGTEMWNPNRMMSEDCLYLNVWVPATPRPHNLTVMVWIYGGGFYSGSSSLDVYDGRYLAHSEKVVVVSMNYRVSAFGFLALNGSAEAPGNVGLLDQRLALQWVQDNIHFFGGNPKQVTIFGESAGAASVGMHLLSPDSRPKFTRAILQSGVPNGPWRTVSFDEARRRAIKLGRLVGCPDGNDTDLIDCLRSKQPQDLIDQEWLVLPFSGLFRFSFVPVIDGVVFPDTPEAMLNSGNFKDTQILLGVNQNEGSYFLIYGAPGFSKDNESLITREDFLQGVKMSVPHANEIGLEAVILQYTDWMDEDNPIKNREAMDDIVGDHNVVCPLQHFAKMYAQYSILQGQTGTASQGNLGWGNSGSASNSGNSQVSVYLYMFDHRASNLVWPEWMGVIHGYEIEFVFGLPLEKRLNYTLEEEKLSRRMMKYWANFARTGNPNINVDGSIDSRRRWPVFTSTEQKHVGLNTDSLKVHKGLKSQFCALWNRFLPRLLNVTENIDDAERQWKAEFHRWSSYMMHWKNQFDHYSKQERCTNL

What is called IC50 is the point on the concentration scale where inhibition reaches its midpoint. Broadly, the Ki is a dissociation constant, usually derived from enzyme kinetics or from competition with a known ligand. As to `CC1CC(=O)c2c(O)cccc2O1` (centres unmarked) [HMC, 5-hydroxy-2-methyl-chroman-4-one], the IC50 on Human recombinant MAO-A is 14 ± 2.07 µM; against electric eel AChE, above 40 µM; against horse serum BChE, above 40 µM; at Human recombinant MAO-B it was 3.23 ± 0.3 µM. The remaining activity at 2 µg/mL at Human recombinant MAO-A (isolated compounds, 2 µg/mL, read-out: Residual Activity at 2 µg/mL (%) MAO-A) was determined as 55.8 ± 0.91%; at electric eel AChE (isolated compounds, 2 µg/mL, read-out: Residual Activity at 2 µg/mL (%) AChE), 73 ± 1.13%; on horse serum BChE (isolated compounds, 2 µg/mL, read-out: Residual Activity at 2 µg/mL (%) BChE) it was 83.8 ± 5.89%; at Human recombinant MAO-B (isolated compounds, 2 µg/mL, read-out: Residual Activity at 2 µg/mL (%) MAO-B) it was 13.2 ± 0.48%. Besides, the “Cell viability, MDCK” value in data set [1] is “No cytotoxicity; also recorded: not decreased at all”. Also, in the data set with BACE-1, the “Residual Activity (%) BACE-1” value was determined as 98.6 ± 2.04%. The “% Inhibition DPPH” value in data set [2] came to 25.11 ± 2.12%. Besides, the “Reversibility of MAO-B inhibition” value in the data set on MAO-B [3] (dialysis, ~2× IC50) is listed as “reversible inhibitor”. In addition, in the data set with MAO-B [3], the “MAO-B activity recovered after dialysis” value was found to be 80.6%. Further, the “MAO-B activity before dialysis (undialyzed)” value in the data set with MAO-B [3] came to 23.1%. Further, the “Cell viability, HL-60” value in data set [4] is recorded as “No cytotoxicity; also recorded: not decreased at all”. The “Inhibition pattern (Lineweaver–Burk plots)” value on Human recombinant MAO-B (MAO-B) is on record as “competitive inhibitor”. For the same compound, the “Time-dependency: residual activities after preincubation” value at Human recombinant MAO-B (preincubation up to 30 min) was “not changed significantly”. In addition, at Human recombinant MAO-B (ratio of IC50 values), the “Selectivity for MAO-B compared to MAO-A” value is listed as ~ 4 fold. The Ki on Human recombinant MAO-B (secondary plot of Lineweaver–Burk slopes vs inhibitor concentration) is 0.896 µM.

As to `NCCNC(=O)c1ccc(Cl)cn1` [Lazabemide, reference compound], in the data set with MAO-B [3], the “MAO-B activity recovered after dialysis” value is 74.4% and the “MAO-B activity before dialysis (undialyzed)” value was 26.0%.

Consider `CCc1ccc(CCOc2ccc(CC3SC(=O)NC3=O)cc2)nc1` (centres unmarked) [P1B, pioglitazone], for which the Ki on MAO-B [5] was 0.5 µM.

For `C#CCN(C)Cc1ccccc1` [Pargyline, reference compound], the “MAO-B activity recovered after dialysis” value in the data set on MAO-B [3] was “not recovered at all”.

On to `CCCCCC(=O)c1c(O)cc2c(c1O)C(=O)c1c(O)cc(OC)cc1C2=O` [Solorinic acid], for which the IC50 with liver or brain MAO is 14.3 µM.

Consider `CC1Cc2cccc(O)c2C(=O)O1` (centres unmarked) [mellein, Mellein], for which, at monoamine oxidase, the IC50 was 50.2 µM and the IC50 monoamine oxidase was 8.93 mg/L (≈ 50.1 µM).
